Measured values: patent publication US20260250318A1, “COMPOSITIONS AND METHODS FOR CROSSING THE BLOOD BRAIN BARRIER” (VOYAGER THERAPEUTICS, INC., priority 2022, published 2026)

Experiments:
Conditions in all cases: synthetic library passage 3, intravenous, relative to wild-type AAV9
[1] = test system: brain, spinal cord, and DRG of the NHPs; test: NGS fold enrichment of synthetic library (passage 3) in NHPs, first cross-species screen; type: in vivo, cynomolgus macaques (Macaca fascicularis)
Outline: (§1)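 Passage-3 synthetic capsid library given intravenously […] to NHPs (2-4 years) and BALB/c or C57Bl/6 mice (n=3, 6-8 weeks). After e.g. 28 days, tissue RNA was RT-PCR amplified and NGS-sequenced; values are fold enrichment of each variant relative to wild-type AAV9.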

[2] = test system: brain; test: NGS fold enrichment of synthetic library (passage 3) in BALB/c mice, first cross-species screen; type: in vivo
Outline: as §1

[3] = test system: brain; test: NGS fold enrichment of synthetic library (passage 3) in C57Bl/6 mice, first cross-species screen; type: in vivo
Outline: as §1

[4] = RNA from spinal cord of NHPs, NGS
[5] = RNA from brain of BALB/c mice, NGS
[6] = RNA from brain of C57Bl/6 mice, NGS

Sequence | Fold enrichment over AAV9 in the brain of NHPs ([1]; RNA from brain of NHPs, NGS) [fold] | Fold enrichment over AAV9 in the spinal cord of NHPs [1, 4] [fold] | Fold enrichment over AAV9 in the brain of Mice (BALB/c) [2, 5] [fold] | Fold enrichment over AAV9 in the brain of Mice (C57Bl/6) [3, 6] [fold] | Fold enrichment over AAV9 in the brain of NHPs ([1]; RNA NGS, brain of NHPs) [fold] | Fold enrichment over AAV9 in the spinal cord of NHPs ([1]; RNA NGS, spinal cord of NHPs) [fold] | Fold enrichment over AAV9 in the brain of Mice (BALB/c) ([2]; RNA NGS, brain of BALB/c mice) [fold] | Fold enrichment over AAV9 in the brain of Mice (C57Bl/6) ([3]; RNA NGS, brain of C57Bl/6 mice) [fold]
GSGQNQQTGSSSRV | 1.176 | 0.580 | 1.128 | 0.995 |  |  |  | 
GSGQNQQTHGGLRD |  |  |  |  | 1.519 | 6.487 | 1.298 | 1.913
GSGQNQQTHPSPCT |  |  |  |  | 1.510 | 1.003 | 0.546 | 1.120
GSGQNQQTKVGHSA |  |  |  |  | 1.079 | 1.256 | 1.019 | 0.669
GSGQNQQTLPSLSL |  |  |  |  | 1.084 | 1.758 | 0.175 | 0.527
GSGQNQQTLRGSLE | 1.179 | 1.812 | 0.354 | 0.853 |  |  |  | 
GSGQNQQTLSKPWT |  |  |  |  | 1.743 | 0.253 | 0.733 | 0.845
GSGQNQQTLTASKE | 1.333 | 1.152 | 1.172 | 0.981 |  |  |  | 
GSGQNQQTLYSSNT |  |  |  |  | 1.642 | 1.044 | 0.368 | 0.664
GSGQNQQTMANGQR | 1.394 | 0.216 | 1.230 | 1.169 |  |  |  | 
GSGQNQQTMDHNRT |  |  |  |  | 2.130 | 4.944 | 0.440 | 0.642
GSGQNQQTMIANIR |  |  |  |  | 1.076 | 0.000 | 0.458 | 0.379
GSGQNQQTMLGKPC | 1.125 | 0.047 | 0.992 | 1.090 |  |  |  | 
GSGQNQQTMPQHKI |  |  |  |  | 1.097 | 2.394 | 0.197 | 0.479
GSGQNQQTNLGHTT | 1.383 | 1.523 | 1.281 | 1.343 |  |  |  | 
GSGQNQQTNRGNPM |  |  |  |  | 1.860 | 3.402 | 1.098 | 1.349
GSGQNQQTPGAHKT |  |  |  |  | 1.105 | 3.827 | 0.277 | 0.957
GSGQNQQTPLRPPT |  |  |  |  | 1.624 | 0.352 | 0.472 | 0.874
GSGQNQQTRLTDLT |  |  |  |  | 2.046 | 8.470 | 0.776 | 0.910
GSGQNQQTRLVDLT |  |  |  |  | 2.342 | 9.348 | 0.490 | 1.268

Sequence | Fold enrichment over AAV9 in the brain of NHPs ([1]; RNA from brain of NHPs, NGS) [fold] | Fold enrichment over AAV9 in the spinal cord of NHPs [1, 4] [fold] | Fold enrichment over AAV9 in the brain of Mice (BALB/c) [2, 5] [fold] | Fold enrichment over AAV9 in the brain of Mice (C57Bl/6) [3, 6] [fold] | Fold enrichment over AAV9 in the brain of NHPs ([1]; RNA NGS, brain of NHPs) [fold] | Fold enrichment over AAV9 in the spinal cord of NHPs ([1]; RNA NGS, spinal cord of NHPs) [fold] | Fold enrichment over AAV9 in the brain of Mice (BALB/c) ([2]; RNA NGS, brain of BALB/c mice) [fold] | Fold enrichment over AAV9 in the brain of Mice (C57Bl/6) ([3]; RNA NGS, brain of C57Bl/6 mice) [fold]
GSGQNQQTRQEGST | 1.339 | 0.000 | 0.718 | 0.645 |  |  |  | 
GSGQNQQTSGTTNC |  |  |  |  | 1.854 | 8.161 | 0.806 | 1.040
GSGQNQQTSGVLTL |  |  |  |  | 1.553 | 0.000 | 0.782 | 1.104
GSGQNQQTSHFPSA | 1.185 | 0.325 | 0.907 | 0.969 |  |  |  | 
GSGQNQQTSLQDQT |  |  |  |  | 2.505 | 0.500 | 0.968 | 0.315
GSGQNQQTSLSNTA |  |  |  |  | 1.959 | 1.186 | 1.182 | 1.567
GSGQNQQTSMSNAT |  |  |  |  | 1.501 | 6.766 | 0.745 | 1.605
GSGQNQQTSPHNHT |  |  |  |  | 2.761 | 3.132 | 0.845 | 1.524
GSGQNQQTSPRLQT |  |  |  |  | 1.100 | 0.795 | 1.091 | 1.156
GSGQNQQTSQPLPG | 1.141 | 0.080 | 0.530 | 0.748 |  |  |  | 
GSGQNQQTSQSPPT | 1.194 | 1.208 | 0.478 | 0.851 |  |  |  | 
GSGQNQQTSTGVHS |  |  |  |  | 1.660 | 8.271 | 1.075 | 1.039
GSGQNQQTSTTPLP |  |  |  |  | 1.052 | 2.823 | 0.741 | 0.828
GSGQNQQTSVGFRT |  |  |  |  | 1.077 | 3.737 | 0.534 | 0.648
GSGQNQQTSVSQNV | 1.281 | 0.750 | 0.715 | 0.788 |  |  |  | 
GSGQNQQTSVSQQT | 1.342 | 1.614 | 0.913 | 1.030 |  |  |  | 
GSGQNQQTSVYMNT |  |  |  |  | 1.498 | 0.613 | 0.983 | 0.640
GSGQNQQTTAATRM | 1.163 | 3.925 | 1.005 | 0.947 |  |  |  | 
GSGQNQQTTASSHT |  |  |  |  | 1.618 | 7.404 | 0.678 | 0.745
GSGQNQQTTSSNMT |  |  |  |  | 1.099 | 0.569 | 0.698 | 0.638
